Measured values: US4603217A, “Ester substituted alkyl-2-(2,6-dichloroanilino)phenyl acetates” (priority 1983, dated 1986)

What was measured:
[1] = potentiating effect on thiopental-induced sleep in mice; assay type: in vivo, male ddY mice; settings: mouse, in vivo, po
Description: (§1) Effect on central nervous system, which is another side effect of IM, was investigated according to the potentiating effect on thiopental-induced sleep in mice as follows: Male ddY mice weighing 20 to 24 g were subjected to fasting for 15 hrs. […] At 30 mins after the administration, thiopental sodium was injected intravenously to each of the mice in an amount of 35 mg/l kg body weight, and then, the sleeping time was observed. When the sleeping time of the mice to which the Test Compound was administered was longer than 2 times that of the control to which only Tween-80 was administered, the given Test Compound was judged to be effective on thiopental-induced sleep potentiating effect.

[2] = test system: thiopental-induced sleep; experiment: as above; assay type: in vivo, male ddY mice; settings: mouse, in vivo
Description: as §1

[3] = in vivo; settings: mouse, po
[4] = in vivo; settings: rat, po
Description: Gastrointestinal ulcer formation action, which is a principal side effect of an acid anti-inflammatory drug, was investigated according to the method of Okabe et al [cf. […] The compounds of the present invention, IM, DF and acemethacin were suspended in 5% Tween-80 solution and administered orally 1 ml/100 g body weight to the rats, respectively. At 6 hrs after the administration, the state of glandstomach was observed by means of a dissecting microscope whether the ulcer having a diameter more than 1 mm was generated or not.

[5] = test system: ultraviolet erythema; experiment: inhibition action for ultraviolet erythema; assay type: in vivo, male Hartley guinea pigs; parameters: 2 hs after the irradiation, Average ± standard error / 3 hs after the irradiation, Average ± standard error / 5 hs after the irradiation, Average ± standard error: scale not given here; 2 hs after the irradiation, Rate for inhibition / 3 hs after the irradiation, Rate for inhibition / 5 hs after the irradiation, Rate for inhibition: unit not given here; settings: guinea pigs; for 2 hs after the irradiation, Average ± standard error / 2 hs after the irradiation, Rate for inhibition: 2 hs after irradiation; for 3 hs after the irradiation, Average ± standard error / 3 hs after the irradiation, Rate for inhibition: 3 hs after irradiation; for 5 hs after the irradiation, Average ± standard error / 5 hs after the irradiation, Rate for inhibition: 5 hs after irradiation; for duration of the pharmacological effect: ultraviolet erythema, oral
Description: With respect to Compounds 1 to 3, 15 and 21 which are especially useful as an anti-inflammatory drug, IM and DF, inhibition action for ultraviolet erythema was investigated according to the method of Adames et al [cf. Nature, London, 181, 773 (1958)] using guinea pigs as follows: Male Hartley guinea pigs weighing 250 to 350 g were shaved at their sides the day before and two hrs before the ultraviolet irradiation. To the guinea pigs were administered orally Compounds 1 to 3, 15 and 21, IM and DF in amounts as described in Table 2, respectively. To the control group was administered orally only Tween-80. At 1 hr after the time of administration, the guinea pigs were irradiated at their shaved sides by ultraviolet beam for 40 seconds.
The reaction of the ultraviolet erythema was evaluated at 2 hrs, 3 hrs and 5 hrs after irradiation according to the method of Winder et al [cf. Arch. Int. Pharmacodyn., 116, 261 (1958)]. […] Compounds 1 and 2 show a duration of the pharmacological effect over 5 hrs, contrary to that IM has a duration of 2 hrs.

[6] = Rate of hydrolysis in rat plasma; assay type: in vitro ADME; settings: in 1 ml of plasma rat (37° C., incubation for 1 hr)
Description: **in 1 ml of plasma rat (37° C., incubation for 1 hr)

[7] = test system: carrageenan edema; experiment: inhibition test of carrageenan edema employing a foot-pad edema method; assay type: in vivo, male Wister rats; settings: for ED50: Rattus norvegicus, male Wister rats, foot-pad edema, read-out: ED50 for inhibition for carrageenan edema; for anti-inflammatory activity compared with IM: relative to IM
Description: Anti-inflammatory action was investigated according to the method of Winter et al [cf. Pro. Soc. Exp. Biol. Med., 111, 544 (1962)] by the inhibition test of carrageenan edema employing a foot-pad edema method using carrageenan as an irritating agent and male Wister rats weighing 130 to 170 g.

Structure (SMILES)	ED50 [1] [mg/kg]	potentiating effect on thiopental-induced sleep relative to IM [2]	LD50 [3] [mg/kg]	TD50 at 6 h [4] [mg/kg]	2 hs after the irradiation, Average ± standard error ([5]; 3 mg/kg orally)	2 hs after the irradiation, Rate for inhibition ([5]; 3 mg/kg orally)	3 hs after the irradiation, Average ± standard error ([5]; 3 mg/kg orally)	3 hs after the irradiation, Rate for inhibition ([5]; 3 mg/kg orally)	5 hs after the irradiation, Average ± standard error ([5]; 3 mg/kg orally)	5 hs after the irradiation, Rate for inhibition ([5]; 3 mg/kg orally)	2 hs after the irradiation, Average ± standard error ([5]; 10 mg/kg orally)	2 hs after the irradiation, Rate for inhibition ([5]; 10 mg/kg orally)	3 hs after the irradiation, Average ± standard error ([5]; 10 mg/kg orally)	3 hs after the irradiation, Rate for inhibition ([5]; 10 mg/kg orally)	5 hs after the irradiation, Average ± standard error ([5]; 10 mg/kg orally)	5 hs after the irradiation, Rate for inhibition ([5]; 10 mg/kg orally)	duration of the pharmacological effect [5]	metabolised at 1 h [6] [%]	ED50 [7] [mg/kg]	anti-inflammatory activity compared with IM [7]
C/C=C/C(=O)OCOC(=O)Cc1c(C)n(C(=O)c2ccc(Cl)cc2)c2ccc(OC)cc12 [Compound 1, Crotonoyloxymethyl[1-(p-chlorobenzoyl)-5-methoxy-2-methyl-3-indolyl]acetate]	455	1/4.3	105	15	1.50 ± 0.337	43.8	2.08 ± 0.193	26.5	1.92 ± 0.193	32.2	1.17 ± 0.322	56.2	1.58 ± 0.288	44.2	1.92 ± 0.229	32.2	over 5 hrs	88.9	6	equal anti-inflammatory activity to IM
COc1ccc2c(c1)c(CC(=O)OCOC(=O)C=C(C)C)c(C)n2C(=O)c1ccc(Cl)cc1 [Compound 2, 3,3-Dimethylacryloyloxymethyl[1-(p-chlorobenzoyl)-5-methoxy-2-methyl-3-indolyl]acetate]			67	20	1.83 ± 0.297	31.5	1.83 ± 0.207	35.3	2.0 ± 0.174	29.3	0.83 ± 0.241	68.9	0.83 ± 0.241	70.7	1.0 ± 0.369	64.7	over 5 hrs	78	6	equal anti-inflammatory activity to IM
C/C=C/C(=O)OC(C)OC(=O)Cc1c(C)n(C(=O)c2ccc(Cl)cc2)c2ccc(OC)cc12 (centres unmarked) [Compound 10, 1-(Crotonoyloxy)ethyl[1-(p-chlorobenzoyl)-5-methoxy-2-methyl-3-indolyl]acetate]	261	1/2.5	65	20														88.2	7	
CC=CC=CC(=O)OC(C)OC(=O)Cc1c(C)n(C(=O)c2ccc(Cl)cc2)c2ccc(OC)cc12 (centres unmarked) [Compound 12, 1-(2,4-Hexadienoyloxy)ethyl[1-(p-chlorobenzoyl)-5-methoxy-2-methyl-3-indolyl]acetate]			640	> 20														80.4	> 20	
C/C=C/C(=O)OCOC(=O)Cc1ccccc1Nc1c(Cl)cccc1Cl [Compound 13, Crotonoyloxymethyl-2-(2,6-dichloroanilino)-phenylacetate]			400	30														89.7	< 30	
CC(C)=CC(=O)OCOC(=O)Cc1ccccc1Nc1c(Cl)cccc1Cl [Compound 14, 3,3-Dimethylacryloyloxymethyl-2-(2,6-dichloroanilino)phenylacetate]			455	30														83.4	< 30	
